Test results from patent US10336762B2 (priority 2017, dated 2019).
Where two headings read alike, the source gives them in different places.

Columns and labels:
[1] = target: IRAK4 enzyme (Homo sapiens (Human), UniProt Q9NWZ3); assay: biochemical; format: biochemical; conditions: IRAK4 enzyme, 500 μM ATP
[2] = test system: TNFα; assay: cells; format: cell-based, human; conditions: Homo sapiens, Monocyte, LPS-stimulated human monocytes, read-out: EC50 TNF

Chain of IRAK4 enzyme (Q9NWZ3 whole entry): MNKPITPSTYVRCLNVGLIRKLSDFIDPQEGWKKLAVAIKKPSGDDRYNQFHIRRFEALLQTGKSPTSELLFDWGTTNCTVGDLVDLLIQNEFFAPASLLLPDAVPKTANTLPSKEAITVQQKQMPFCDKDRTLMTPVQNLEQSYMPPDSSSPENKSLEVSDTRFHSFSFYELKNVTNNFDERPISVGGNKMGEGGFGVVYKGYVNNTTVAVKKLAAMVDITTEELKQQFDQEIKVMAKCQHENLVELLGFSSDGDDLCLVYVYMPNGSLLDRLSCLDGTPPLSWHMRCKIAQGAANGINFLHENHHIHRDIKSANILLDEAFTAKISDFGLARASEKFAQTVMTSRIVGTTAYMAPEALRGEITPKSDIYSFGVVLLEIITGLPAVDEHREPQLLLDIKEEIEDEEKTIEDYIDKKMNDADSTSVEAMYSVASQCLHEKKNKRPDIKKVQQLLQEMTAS

SMILES	IC50 ([1]; TR-FRET (HTRF)) [nM]	EC50 ([2]; TNFα content) [nM]	IC50 ([1]; TR-FRET) [nM]	EC50 ([2]; TNFα by TR-FRET) [nM]
COC(=O)C12CCCC(Nc3cc(-c4ccc5cc(C#N)cnn45)ncc3C(=O)NC[C@@H](F)C(C)(C)O)(CC1)CC2 [Example 543, (R)-methyl 5-((2-(3-cyano-pyrrolo[1,2-b]pyridazin-7-yl)-5-((2-fluoro-3-hydroxy-3-methylbutyl)carbamoyl)pyridin-4-yl)amino)bicyclo[3.2.2] nonane-1-carboxylate]	2	49		
CC(C)(O)[C@H](F)CNC(=O)c1cnc(-c2ccc3cc(C#N)cnn23)cc1NC1CC2(CC(O)C2)C1 (stereo partly drawn) [Example 511, (R)-6-(3-cyano-pyrrolo[1,2-b]pyridazin-7-yl)-N-(2-fluoro-3-hydroxy-3-methylbutyl)-4-((6-hydroxyspiro[3.3]heptan-2-yl)amino) nicotinamide]	< 1	26		
CC(C)(O)[C@H](F)CNC(=O)c1cnc(-c2ccc3cc(C#N)cnn23)cc1Nc1ccc(N2CCC2)nc1 [Example 675, (R)-4-((6-(azetidin-1-yl)pyridin-3-yl)amino)-6-(3-cyanopyrrolo[1,2-b]pyridazin-7-yl)-N-(2-fluoro-3-hydroxy-3-methylbutyl)nicotinamide]	< 1	23		
CC(C)(O)[C@H](F)CNC(=O)c1cnc(-c2ccc3cc(C#N)cnn23)cc1Nc1cnc2c(c1)CC(=O)N2 [Example 668, (R)-6-(3-cyanopyrrolo[1,2-b]pyridazin-7-yl)-N-(2-fluoro-3-hydroxy-3-methylbutyl)-4-((2-oxo-2,3-dihydro-1H-pyrrolo[2,3-b]pyridin-5-yl)amino)nicotinamide]	1	165		
N#Cc1cnn2c(-c3cc(NC45CCC(O)(CC4)CC5)c(C(=O)NCC4(F)CCC4)cn3)ccc2c1 [Example 739, 6-(3-cyanopyrrolo[1,2-b]pyridazin-7-yl)-N-((1-fluorocyclobutyl)methyl)-4-((4-hydroxybicyclo[2.2.2]octan-1-yl)amino) nicotinamide]	4	277		
CC(C)(O)[C@H](F)CNC(=O)c1cnc(-c2ccc3cc(C#N)cnn23)cc1N[C@H]1C[C@H](CN2CCOC2=O)C1 [Example 714, 6-(3-cyanopyrrolo[1,2-b]pyridazin-7-yl)-N-((R)-2-fluoro-3-hydroxy-3-methylbutyl)-4-(((1r,3R)-3-((2-oxooxazolidin-3-yl)methyl)cyclobutyl)amino)nicotinamide]	< 1	35		
COC(=O)NC[C@H]1C[C@@H](Nc2cc(-c3ccc4cc(C#N)cnn34)ncc2C(=O)NC[C@@H](F)C(C)(C)O)C1 [Example 698, methyl (((1S,3s)-3-((2-(3-cyanopyrrolo[1,2-b]pyridazin-7-yl)-5-(((R)-2-fluoro-3-hydroxy-3-methylbutyl)carbamoyl)pyridin-4-yl)amino)cyclo-butyl)methyl)carbamate]	3	201		
CC(C)(O)[C@H](F)CNC(=O)c1cnc(-c2ccc3cc(C#N)cnn23)cc1NCC1CN(CC(F)(F)F)C1 [Example 907, (R)-6-(3-cyanopyrrolo[1,2-b]pyridazin-7-yl)-N-(2-fluoro-3-hydroxy-3-methylbutyl)-4-(((1-(2,2,2-trifluoroethyl)azetidin-3-yl)methyl)amino) nicotinamide]			10	91
CC(C)(O)[C@H](F)CNC(=O)c1cnc(-c2ccc3cc(C#N)cnn23)cc1Nc1cnc(N2CCC2)nc1 [Example 681, (R)-4-((2-(azetidin-1-yl)pyrimidin-5-yl)amino)-6-(3-cyanopyrrolo[1,2-b]pyridazin-7-yl)-N-(2-fluoro-3-hydroxy-3-methylbutyl) nicotinamide]	< 1	6		
CC(C)(O)[C@H](F)CNC(=O)c1cnc(-c2ccc3cc(C#N)cnn23)cc1Nc1ccn2nccc2c1 [Example 975, (R)-6-(3-cyanopyrrolo[1,2-b]pyridazin-7-yl)-N-(2-fluoro-3-hydroxy-3-methyl-butyl)-4-(pyrazolo[1,5-a]pyridin-5-ylamino) nicotinamide]			< 1	67
CC(C)(O)[C@H](F)CNC(=O)c1cnc(-c2ccc3cc(C#N)cnn23)cc1Nc1ccc(CC#N)nc1 [Example 678, (R)-4-((6-(cyanomethyl)pyridin-3-yl)amino)-6-(3-cyanopyrrolo[1,2-b]pyridazin-7-yl)-N-(2-fluoro-3-hydroxy-3-methylbutyl)nicotinamide]	< 1	9		
CC(C)(O)[C@H](F)CNC(=O)c1cnc(-c2ccc3cc(C#N)cnn23)cc1Nc1cnn(-c2ccncc2)c1 [Example 761, (R)-6-(3-cyanopyrrolo[1,2-b]pyridazin-7-yl)-N-(2-fluoro-3-hydroxy-3-methylbutyl)-4-((1-(pyridin-4-yl)-1H-pyrazol-4-yl)amino) nicotinamide]	< 1	26		
CC(C)Nc1cc(-c2ccc3cc(C#N)cnn23)ncc1C(=O)NCCC(C)(C)O [Example 41, 6-(3-cyanopyrrolo[1,2-b]pyridazin-7-yl)-N-(3-hydroxy-3-methylbutyl)-4-(isopropylamino) nicotinamide]		78	< 1	
CC(C)(O)[C@H](F)CNC(=O)c1cnc(-c2ccc3cc(C#N)cnn23)cc1NC1CCN(S(C)(=O)=O)CC1 [Example 46, (R)-6-(3-cyanopyrrolo[1,2-b]pyridazin-7-yl)-N-(2-fluoro-3-hydroxy-3-methylbutyl)-4-((1-(methylsulfonyl)piperidin-4-yl)amino)nicotinamide]		37	< 1	
CC(C)(O)[C@H](F)CNC(=O)c1cnc(-c2ccc3cc(C#N)cnn23)cc1N[C@H]1C[C@H](CN2CCOCC2)C1 [Example 701, 6-(3-cyanopyrrolo[1,2-b]pyridazin-7-yl)-N-((R)-2-fluoro-3-hydroxy-3-methylbutyl)-4-(((1r,3R)-3-(morpholino-methyl)cyclobutyl)amino)nicotinamide]	4	191		
CC(C)(O)[C@H](F)CNC(=O)c1cnc(-c2ccc3cc(C#N)cnn23)cc1Nc1cccnc1F [Example 229, (R)-6-(3-cyanopyrrolo[1,2-b]pyridazin-7-yl)-N-(2-fluoro-3-hydroxy-3-methylbutyl)-4-((2-fluoropyridin-3-yl)amino)nicotinamide]		135	1	
CC(C)(O)[C@H](F)CNC(=O)c1cnc(-c2ccc3cc(C#N)cnn23)cc1NC12CCC(NC(=O)OC3COC3)(CC1)CC2 [Example 279, (R)-oxetan-3-yl (4-((2-(3-cyanopyrrolo[1,2-b]pyridazin-7-yl)-5-((2-fluoro-3-hydroxy-3-methylbutyl)carbamoyl)pyridin-4-yl)amino)bicyclo[2.2.2]octan-1-yl)carbamate]		29	2	
CC(C)(O)[C@H](F)CNC(=O)c1cnc(-c2ccc3cc(C#N)cnn23)cc1Nc1cncc(C(F)F)c1 [Example 226, (R)-6-(3-cyanopyrrolo[1,2-b]pyridazin-7-yl)-4-((5-(difluoromethyl)pyridin-3-yl)amino)-N-(2-fluoro-3-hydroxy-3-methylbutyl)nicotinamide]		75	< 1	
N#Cc1cnn2c(-c3cc(NC45CCC(O)(CC4)CC5)c(C(=O)NCC(=O)N4CCCCC4)cn3)ccc2c1 [Example 792, 6-(3-cyanopyrrolo[1,2-b]pyridazin-7-yl)-4-((4-hydroxybicyclo[2.2.2]octan-1-yl)amino)-N-(2-oxo-2-(piperidin-1-yl)ethyl)nicotinamide]	2	86		
COCc1ccc(Nc2cc(-c3ccc4cc(C#N)cnn34)ncc2C(=O)NC[C@@H](F)C(C)(C)O)cc1 [Example 648, (R)-6-(3-cyanopyrrolo[1,2-b]pyridazin-7-yl)-N-(2-fluoro-3-hydroxy-3-methylbutyl)-4-((4-(methoxymethyl)phenyl)amino)nicotinamide]	1	51		
CC(C)(O)[C@H](F)CNC(=O)c1cnc(-c2ccc3cc(C#N)cnn23)cc1N[C@H]1C[C@H](CNC(=O)C2CC2F)C1 (stereo partly drawn) [Example 941, 6-(3-cyanopyrrolo[1,2-b]pyridazin-7-yl)-N-((R)-2-fluoro-3-hydroxy-3-methylbutyl)-4-(((1R,3R)-3-(((1R,2R)-2-fluorocyclo-propane-1-carboxamido)methyl)cyclobutyl)amino) nicotinamide]			< 1	19
N#Cc1cnn2c(-c3cc(NC45CCC(O)(CC4)CC5)c(C(=O)NCC4(C(F)F)COC4)cn3)ccc2c1 [Example 710, 6-(3-cyanopyrrolo[1,2-b]pyridazin-7-yl)-N-((3-(difluoromethyl)oxetan-3-yl)methyl)-4-((4-hydroxybicyclo[2.2.2]octan-1-yl)amino) nicotinamide]	4	183		
COC(=O)N1CC(n2cc(Nc3cc(-c4ccc5cc(C#N)cnn45)ncc3C(=O)NC[C@@H](F)C(C)(C)O)cn2)C1 [Example 231, (R)-methyl 3-(4-((2-(3-cyanopyrrolo[1,2-b]pyridazin-7-yl)-5-((2-fluoro-3-hydroxy-3-methylbutyl)carbamoyl)pyridin-4-yl)amino)-1H-pyrazol-1-yl)azetidine-1-carboxylate]		61	< 1	
CC(=O)N1CC[C@@H]1CNc1cc(-c2ccc3cc(C#N)cnn23)ncc1C(=O)NC[C@@H](F)C(C)(C)O [Example 892, 4-((((R)-1-acetylazetidin-2-yl)methyl)amino)-6-(3-cyanopyrrolo[1,2-b]pyridazin-7-yl)-N-((R)-2-fluoro-3-hydroxy-3-methylbutyl)nicotinamide]			3	808
CC1(O)CC2(CC(Nc3cc(-c4ccc5cc(C#N)cnn45)ncc3C(=O)NC[C@@H](F)C(C)(C)O)C2)C1 (stereo partly drawn) [Example 510, (R)-6-(3-cyanopyrrolo[1,2-b]pyridazin-7-yl)-N-(2-fluoro-3-hydroxy-3-methylbutyl)-4-((6-hydroxy-6-methylspiro[3.3]heptan-2-yl)amino)nicotinamide]	< 1	39		
